The values below come from publication PMC11180795 (Frontiers in Pharmacology, 2024).

Common to all, as to assay type: cell-based, Murine
One data set has as its system TNF-α. The data set is described as follows: Th1/Th2 cytokine measurement (Cytometric Bead Array) in LPS-stimulated Raw 264.7 cells, TNF-α. To be noted: compound at 20 µM; for effect on TNF-α production (in words): vs stimulated and untreated control. On the procedure:
(§1) Raw 264.7 cells were seeded at 2 × 10^5 cells/mL in a 48-well microplate and allowed to adhere for 24 h, then treated with LPS 0.1 μg/mL and with compounds (1), (5) and (6) at 20 µM. Untreated cells and indomethacin (10 µM) were used as controls. After 24 h of incubation, the supernatant was collected and the amount of pro-inflammatory Th1 cytokines (IFN-γ, TNF-α, and IL-2) and anti-inflammatory Th2 cytokines (IL-4, IL-6, and IL-10) released measured. The experiment was performed according to the manufacturer’s instructions using BD™ Cytometric Bead Array (CBA) […] Th1/Th2 Cytokine Kit (BD-Biosciences), and data were acquired on a BD LSR Fortessa™ cell analyzer flow cytometer.

The next data set concerns IFN-γ. Put plainly: Th1/Th2 cytokine measurement (Cytometric Bead Array) in LPS-stimulated Raw 264.7 cells, IFN-γ. The following applies: compound at 20 µM; for effect on IFN-γ production (in words): vs stimulated and untreated control. As to the method:
as §1

A short description of data set [1]: Cytotoxicity MTT assay on RAW 264.7 cells. To be noted: mouse, RAW 264.7 macrophage cells, 48 h incubation, read-out: IC50, cytotoxic effect on RAW264.7 cells. On the procedure: Murine macrophage RAW 264.7 cell line obtained from the American Type Culture Collection (Rockville, MD, United States) was maintained in DMEM supplemented with 10% fetal calf serum (FCS) and 1% penicillin/streptomycin/fungizone (PSF) under standard cell culture conditions at 37°C and 5% CO2 in a humidified environment.
The cytotoxic effect of compounds on RAW 264.7 cells was assessed using the 3-(4, 5-dimethylthiazol-2-yl)-2, 5-diphenyl tetrazolium bromide (MTT) assay as established by Mosmann ([Mosmann, 1983]) with slight modifications. Briefly, cells were seeded at a density of 1 × 10^5 cells/mL (100 µL) in 96-well microtitre plates and incubated at 37°C and 5% CO2 in a humidified environment. After 24 h incubation, 100 µL of compounds (at concentration ranged from to 250 μM–1.95 µM) were added to the wells containing cells and further incubated for 48 h in a CO2 incubator. A suitable control (untreated cells) was included and doxorubicin was used as a positive reference. Thereafter, the medium in each well was aspirated from the cells, which were then washed with PBS, and finally fresh medium (200 µL) was added to each well. Then, 30 µL of MTT (5 mg/mL in PBS) was added to each well and the plates were incubated at 37°C for 4 h. The medium was aspirated from the wells and DMSO was added to solubilize the formed formazan crystals. The absorbance was read at 570 nm (SpectraMax 190, Molecular devices). The percentage of cell inhibition was calculated with reference to the control (untreated cells taken as 100% viability). Then, the IC50 values of plant compounds showing more than 50% cell growth inhibition were calculated by plotting the percentage inhibition against the concentration.

In the next data set the target is T1, COX-2 (Mus musculus, UniProt Q05769).
T1 construct: The cell lysate was centrifuged at 12000 x g for 3 min and the supernatant was collected for COX activity assay; endogenous in cells
T1 sequence (Q05769 18-604): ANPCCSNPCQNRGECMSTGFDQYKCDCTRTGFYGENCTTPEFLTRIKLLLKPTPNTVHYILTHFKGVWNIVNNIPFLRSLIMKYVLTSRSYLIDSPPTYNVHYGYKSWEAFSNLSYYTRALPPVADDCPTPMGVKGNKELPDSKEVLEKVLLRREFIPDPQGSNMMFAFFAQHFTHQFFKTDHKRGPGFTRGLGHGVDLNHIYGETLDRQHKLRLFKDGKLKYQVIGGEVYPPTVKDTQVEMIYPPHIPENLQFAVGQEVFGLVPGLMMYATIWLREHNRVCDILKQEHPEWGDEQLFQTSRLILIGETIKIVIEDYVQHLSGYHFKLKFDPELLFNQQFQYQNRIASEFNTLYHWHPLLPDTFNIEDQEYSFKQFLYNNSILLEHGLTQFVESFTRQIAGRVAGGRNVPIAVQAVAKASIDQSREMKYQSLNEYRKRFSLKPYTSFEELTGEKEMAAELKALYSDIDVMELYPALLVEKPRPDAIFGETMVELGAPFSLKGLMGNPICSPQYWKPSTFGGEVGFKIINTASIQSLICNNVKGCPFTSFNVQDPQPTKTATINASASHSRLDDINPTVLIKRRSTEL
Put plainly: Fluorometric COX activity assay in lysate of LPS-treated Raw 264.7 cells, COX-2. To be noted: compound at 20 µM, LPS 0.1 μg/mL, 24 h; untreated control 99.85 µU/mg. On the procedure:
The fluorometric cyclooxygenase activity assay kit (Biovision) was used to evaluate the activity of COX-1 and COX-2 enzymes. Raw 264.7 cells were seeded at 2 × 10^5 cells/mL in a 48-well microplate, and allowed to adhere for 24 h, then treated with LPS 0.1 μg/mL and compounds (1), (5) and (6) at 20 µM against Raw 264.7 cells. After 24 h the cyclooxygenase enzyme (COX-1 and COX-2) activity assay was performed. Cells were detached with TNE buffer (Tris 40 mM, NaCl 150 mM, EDTA 1 mM) and washed with PBS (1x), then re-suspended in 1 mL PBS (1x), transferred into 1.5 mL tube, and centrifuged at 500 x g for 3 min. The pellet was then re-suspended in 0.5 mL of lysis buffer with a protease inhibitor cocktail, vortexed, and incubated at 4°C for 5 min. The cell lysate was centrifuged at 12000 x g for 3 min and the supernatant was collected for COX activity assay. The COX activity was assessed using the fluorometric cyclooxygenase activity assay kit (Biovision) following the manufacturer’s instructions. The assay includes COX-1 and COX-2 specific inhibitors to differentiate the activity of COX-1 and COX-2 as well as other peroxidases. Indomethacin (10 µM) was used as a standard drug and appropriate controls were also included.

Data set [2] relates to NO production in LPS-activated RAW 264.7 macrophages. Put plainly: Inhibition of nitric oxide (NO) production in LPS-activated RAW 264.7 macrophages (Griess reagent). To be noted: for amount of NO produced: compound at 25 µM, LPS 1 μg/mL, 24 h, untreated and stimulated control 6.08 µM. On the procedure:
Murine macrophage RAW 264.7 cell line obtained from the American Type Culture Collection (Rockville, MD, United States) was maintained in DMEM supplemented with 10% fetal calf serum (FCS) and 1% penicillin/streptomycin/fungizone (PSF) under standard cell culture conditions at 37°C and 5% CO2 in a humidified environment. The RAW 264.7 macrophage cells were seeded in 96 well-microtitre plates (2 × 10^5 cells/mL). They were activated by incubation in a medium containing 1 μg/mL LPS alone (control) or lipopolysaccharide, and compounds at concentration of 3.12 µM, 6.25 µM, 12.5 µM and 25 µM dissolved in DMSO. […] After 24h, the amount of nitric oxide released from macrophages was determined using the Griess reagent as previously described ([Dzoyem and Eloff, 2015]).
(Nitrite, measured by Griess reagent, commonly stands in for NO production.)

For the next data set, the system named is IL-4. The data set is described as follows: Th1/Th2 cytokine measurement (Cytometric Bead Array) in LPS-stimulated Raw 264.7 cells, IL-4. To be noted: compound at 20 µM, LPS 0.1 μg/mL, 24 h; stimulated untreated control 1.01 pg/mL. On the procedure:
as §1

One may read the IC50 as the concentration at which inhibition is half-maximal.

SMILES strings stand for the structures.

Take `CC(C)=CCc1c2c(c3oc4c(O)cccc4c(=O)c3c1O)C=CC(C)(C)O2` [Compound 1, Ananixanthone]: in the data set with TNF-α (LPS 0.1 μg/mL, 24 h, stimulated untreated control 4356.86 pg/mL), the TNF-α level is listed as 3854.61 pg/mL. In the data set on IFN-γ (LPS 0.1 μg/mL, 24 h, stimulated untreated control 0.84 pg/mL), this molecule registered an IFN-γ level of 0.43 pg/mL. For the same molecule, the IC50 at 48 h in data set [1] is over 100 µM. For the same molecule, the COX-2 activity at COX-2 is 59.33 µU/mg. The “inhibitory effect on NO production at the highest concentration (in words)” value in data set [2] (25 µM, LPS-stimulated RAW 264.7) is on record as “remarkable inhibitory effect”. This molecule also displayed an IL-4 level in the data set with IL-4 of 1.23 pg/mL.
Consider `CC(C)=CCC/C(C)=C/C[C@]12C[C@@H](CC=C(C)C)C(C)(C)[C@](CC=C(C)C)(C(=O)C(C(=O)c3ccc(O)c(O)c3)=C1O)C2=O` [Compound 6, Guttiferone M], for which the “effect on TNF-α production (in words)” value in the data set on TNF-α is listed as “moderate decrease”. In the data set with IFN-γ, the “effect on IFN-γ production (in words)” value is “moderate decrease”. In data set [1], the IC50 at 48 h turned out to be 61.2 µM. At COX-2, this molecule yielded a COX-2 activity of 43.84 µU/mg. In data set [2], the “amount of NO produced” value was 0.54 µM. The molecule also came in with an IL-4 level with IL-4 of 0.94 pg/mL.
As for `CC(C)=CCC/C(C)=C/C[C@]12C[C@@H](CC=C(C)C)C(C)(C)[C@](C/C=C(\C)CCC=C(C)C)(C(=O)C(C(=O)c3ccc(O)c(O)c3)=C1O)C2=O` [Compound 5, Guttiferone O], in the data set with TNF-α, the “effect on TNF-α production (in words)” value is given as “significantly reduces”. The “effect on IFN-γ production (in words)” value in the data set with IFN-γ is on record as “significantly reduces”. For the same molecule, the IC50 at 48 h in data set [1] was 64.5 µM. Moreover, the COX-2 activity on COX-2 was 88.10 µU/mg. Moreover, in data set [2], the “amount of NO produced” value is listed as 0.3 µM. For the same molecule, the IL-4 level with IL-4 was determined as 2.25 pg/mL.
